Measurements as given in PMC6952396, “Structural basis for itraconazole-mediated NPC1 inhibition” (Nature Communications, 2020).
Like-named read-outs stand apart in the source and are kept apart here.

Biological target: T1, NPC1 (Cricetulus griseus, UniProt Q9JLG3)
T1 construct: CHO-7 cells in the medium are deprived of cholesterol to induce the LDL receptors biosynthesis; endogenous in cells; host or cells: CHO-7 cells
T1 sequence (Q9JLG3 23-1277): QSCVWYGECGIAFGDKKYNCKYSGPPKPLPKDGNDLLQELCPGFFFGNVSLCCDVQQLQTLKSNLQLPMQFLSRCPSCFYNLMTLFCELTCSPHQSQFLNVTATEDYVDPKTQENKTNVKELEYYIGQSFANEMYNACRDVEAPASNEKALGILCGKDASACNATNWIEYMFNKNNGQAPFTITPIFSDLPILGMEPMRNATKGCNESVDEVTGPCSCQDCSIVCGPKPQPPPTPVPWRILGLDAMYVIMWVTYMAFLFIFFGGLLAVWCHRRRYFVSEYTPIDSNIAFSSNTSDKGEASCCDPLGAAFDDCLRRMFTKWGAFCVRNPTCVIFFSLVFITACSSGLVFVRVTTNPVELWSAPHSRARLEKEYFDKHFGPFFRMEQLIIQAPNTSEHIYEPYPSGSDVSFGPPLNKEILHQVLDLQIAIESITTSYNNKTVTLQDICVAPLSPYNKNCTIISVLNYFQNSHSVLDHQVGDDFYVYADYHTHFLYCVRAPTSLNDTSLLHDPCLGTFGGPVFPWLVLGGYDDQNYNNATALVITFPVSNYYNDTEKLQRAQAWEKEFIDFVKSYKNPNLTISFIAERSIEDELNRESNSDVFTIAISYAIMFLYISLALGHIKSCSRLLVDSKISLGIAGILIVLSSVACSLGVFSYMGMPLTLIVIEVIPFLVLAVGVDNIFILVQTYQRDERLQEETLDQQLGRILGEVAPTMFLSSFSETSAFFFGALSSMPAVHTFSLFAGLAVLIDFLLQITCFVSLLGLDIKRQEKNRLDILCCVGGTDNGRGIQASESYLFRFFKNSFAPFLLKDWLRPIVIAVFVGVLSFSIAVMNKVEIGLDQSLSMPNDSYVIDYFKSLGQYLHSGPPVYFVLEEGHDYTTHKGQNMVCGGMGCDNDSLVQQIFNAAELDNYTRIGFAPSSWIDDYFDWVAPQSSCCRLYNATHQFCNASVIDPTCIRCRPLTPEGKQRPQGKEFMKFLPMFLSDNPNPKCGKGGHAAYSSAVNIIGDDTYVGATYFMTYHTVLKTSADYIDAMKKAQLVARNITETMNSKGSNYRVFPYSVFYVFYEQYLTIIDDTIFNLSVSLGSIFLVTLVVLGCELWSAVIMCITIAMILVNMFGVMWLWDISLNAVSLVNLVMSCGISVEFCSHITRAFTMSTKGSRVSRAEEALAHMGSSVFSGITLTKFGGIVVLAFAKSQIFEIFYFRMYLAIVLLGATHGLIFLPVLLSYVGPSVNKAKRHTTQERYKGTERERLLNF
Test: Cholesterol re-esterification (ACAT) assay measuring NPC1-mediated export of cholesterol from lysosomes in CHO-7 cells
Type: cell-based
Conditions: for cholesteryl [14C] oleate formed, Repeat 1 / cholesteryl [14C] oleate formed, Repeat 2: Fig. 2 source data; for cholesteryl [14C] oleate formed, Repeat 3 / cholesteryl [14C] oleate formed, Repeat 4: Supplementary Fig. 3 source data
Text: Itraconazole has three chiral centers (Supplementary Fig. 2a). The pharmaceutical form contains four cis-stereoisomers in a 1:1:1:1 molar ratio (Supplementary Fig. 2a–d). To determine the activity of the cis-stereoisomers, the individual isomers were isolated and identified based on their optical rotation in chloroform following a previous report (Supplementary Fig. 2e)[26]. Then, they were separately tested in a cholesterol re-esterification assay used to measure NPC1-mediated export of cholesterol from lysosomes. Briefly, CHO-7 cells in the medium are deprived of cholesterol to induce the LDL receptors biosynthesis. The cells are then incubated with fetal calf serum (FCS) that contains LDL. The LDL-derived cholesterol will now be transported by functional NPC1 protein from the lysosome to the endoplasmic reticulum (ER). The acyl-CoA:cholesterol actyltransferase named ACAT can now re-esterify the cholesterol in the ER. Therefore, the cells were pulse-labeled with [^14C] oleate and we can measure the synthesis of cholesteroyl [^14C] oleate to evaluate the activity of NPC1 protein. Using this assay, we tested the ability of various itraconazole to inhibit NPC1 activity.
Fig. 2 ACAT activity of itraconazole and ketoconazole in CHO-7 cells. On day 0, CHO-7 cells were set up in medium A with 5% LPDS at 2.5 × 10^5 cells/well in 6-well dish. On day 2, cells were switched to medium A with 5% LPDS containing 50 µM sodium compactin and 50 µM sodium mevalonate. On day 3 the cells received fresh medium B containing compactin and mevalonate with various concentration compounds in the presence of 10% FCS containing lipoproteins. After incubation for 4 h at 37 °C, each cell monolayer was pulse-labeled for 2 h with 0.1 mM sodium [^14C] oleate (5792 dpm/nmol). The cells were then harvested for measurement of their content of cholesteryl [^14C] oleate and [^14C] triglycerides, as described in Methods. […] Itraconazole mixture, isomer A (Supplementary Fig. 2a), isomer B (Supplementary Fig. 2b) and isomer C (Supplementary Fig. 2c) were added at final concentrations of 0.3 μM. The isomer D (Supplementary Fig. 2d), I-Br and ketoconazole were added at final concentrations of 1 μM. The biological repeats are shown as individual values. Source data are provided as a Source Data file.
On day 0, cells were set up in medium A with 5% LPDS at 2.5 × 10^5 cells/well in six-well dish. On day 2, cells were switched to medium A with 5% LPDS containing 50 µM sodium compactin and 50 µM sodium mevalonate. On day 3 the cells received fresh medium B containing compactin and mevalonate with indicated concentration triazole compounds in the presence of 10% FCS containing lipoproteins. After incubation for 4 h at 37 °C, each cell monolayer was pulse-labeled for 2 h with 0.1 mM sodium [^14C] oleate (5792 dpm/nmol). The cells were then harvested for measurement of their content of cholesteryl [^14C] oleate and [^14C] triglycerides.
The rate of incorporation of [^14C] oleate into cholesteryl [^14C] oleate and [^14C] triglycerides by monolayers of NPC1^−/− cells and CHO-7 cells was measured as described previously. In brief, cells were switched to medium containing LPDS supplemented with compactin and mevolonate at 16 h before the experiments. On the day of the experiment, cells were incubated for 4 h with fresh medium containing FCS as a source of cholesterol-containing lipoproteins. Cells were then pulse –labeled for 2 h with 0.1 mM sodium [^14C] oleate. Cells were then washed, and the lipids were extracted in hexane:isopropanol (3:2, vol:vol), separated on a silica gel G thin-layer chromatogram (developed in heptane:ethylether:acetic acid, 90:30:1), and quantified by scintillation counting with the use of an internal standard for recovery.

| SMILES | cholesteryl [14C] oleate formed, Repeat 1 (0.01 uM compound) | cholesteryl [14C] oleate formed, Repeat 2 (0.01 uM compound) | cholesteryl [14C] oleate formed, Repeat 3 (0.01 uM compound) | cholesteryl [14C] oleate formed, Repeat 4 (0.01 uM compound) | cholesteryl [14C] oleate formed, Repeat 1 (0.03 uM compound) | cholesteryl [14C] oleate formed, Repeat 2 (0.03 uM compound) | cholesteryl [14C] oleate formed, Repeat 3 (0.03 uM compound) | cholesteryl [14C] oleate formed, Repeat 4 (0.03 uM compound) | cholesteryl [14C] oleate formed, Repeat 1 (0.06 uM compound) | cholesteryl [14C] oleate formed, Repeat 2 (0.06 uM compound) | cholesteryl [14C] oleate formed, Repeat 3 (0.06 uM compound) | cholesteryl [14C] oleate formed, Repeat 4 (0.06 uM compound) | cholesteryl [14C] oleate formed, Repeat 1 (0.1 uM compound) | cholesteryl [14C] oleate formed, Repeat 2 (0.1 uM compound) | cholesteryl [14C] oleate formed, Repeat 3 (0.1 uM compound) | cholesteryl [14C] oleate formed, Repeat 4 (0.1 uM compound) | cholesteryl [14C] oleate formed, Repeat 1 (0.3 uM compound) | cholesteryl [14C] oleate formed, Repeat 2 (0.3 uM compound) | cholesteryl [14C] oleate formed, Repeat 3 (0.3 uM compound) | cholesteryl [14C] oleate formed, Repeat 4 (0.3 uM compound) | further results |
| --- | --- | --- | --- | --- | --- | --- | --- | --- | --- | --- | --- | --- | --- | --- | --- | --- | --- | --- | --- | --- | --- |
| CCC(C)n1ncn(-c2ccc(N3CCN(c4ccc(OCC5COC(Cn6cncn6)(c6ccc(Cl)cc6Cl)O5)cc4)CC3)cc2)c1=O (stereo not shown) [Itra-D] | 5.124 nanomoles formed per hour per milligram cell protein | 4.829 nanomoles formed per hour per milligram cell protein | 5.364 nanomoles formed per hour per milligram cell protein | 5.55 nanomoles formed per hour per milligram cell protein | 5.201 nanomoles formed per hour per milligram cell protein | 5.414 nanomoles formed per hour per milligram cell protein | 4.815 nanomoles formed per hour per milligram cell protein | 5.633 nanomoles formed per hour per milligram cell protein | 4.957 nanomoles formed per hour per milligram cell protein | 4.372 nanomoles formed per hour per milligram cell protein | 4.6935 nanomoles formed per hour per milligram cell protein | 4.899 nanomoles formed per hour per milligram cell protein | 4.223 nanomoles formed per hour per milligram cell protein | 3.931 nanomoles formed per hour per milligram cell protein | 3.618 nanomoles formed per hour per milligram cell protein | 3.755 nanomoles formed per hour per milligram cell protein | 1.696 nanomoles formed per hour per milligram cell protein | 0.8471 nanomoles formed per hour per milligram cell protein | 0.9245 nanomoles formed per hour per milligram cell protein | 0.77 nanomoles formed per hour per milligram cell protein | cholesteryl [14C] oleate formed, Repeat 1 (1 uM compound): 0.3184 nanomoles formed per hour per milligram cell protein; cholesteryl [14C] oleate formed, Repeat 2 (1 uM compound): 0.2982 nanomoles formed per hour per milligram cell protein; cholesteryl [14C] oleate formed, Repeat 3 (1 uM compound): 0.3042 nanomoles formed per hour per milligram cell protein; cholesteryl [14C] oleate formed, Repeat 4 (1 uM compound): 0.4741 nanomoles formed per hour per milligram cell protein; IC50 (read-out: IC50 (concentration at which each compound inhibited cholesterol esterification by 50%), 10% FCS, 4 h then 2 h [14C] oleate pulse): 175 nM |
| CCC(C)n1ncn(-c2ccc(N3CCN(c4ccc(OCC5COC(Cn6cncn6)(c6ccc(Cl)cc6Cl)O5)cc4)CC3)cc2)c1=O (stereo not shown) [Itra-C] | 2.751 nanomoles formed per hour per milligram cell protein | 4.364 nanomoles formed per hour per milligram cell protein | 5.964 nanomoles formed per hour per milligram cell protein | 6.001 nanomoles formed per hour per milligram cell protein | 3.794 nanomoles formed per hour per milligram cell protein | 3.288 nanomoles formed per hour per milligram cell protein | 5.048 nanomoles formed per hour per milligram cell protein | 4.017 nanomoles formed per hour per milligram cell protein | 2.064 nanomoles formed per hour per milligram cell protein | 2.2038 nanomoles formed per hour per milligram cell protein | 2.593 nanomoles formed per hour per milligram cell protein | 3.086 nanomoles formed per hour per milligram cell protein | 1.063 nanomoles formed per hour per milligram cell protein | 0.9711 nanomoles formed per hour per milligram cell protein | 0.7465 nanomoles formed per hour per milligram cell protein | 0.811 nanomoles formed per hour per milligram cell protein | 0.4254 nanomoles formed per hour per milligram cell protein | 0.7413 nanomoles formed per hour per milligram cell protein | 0.1456 nanomoles formed per hour per milligram cell protein | 0.04925 nanomoles formed per hour per milligram cell protein | IC50 (IC50 (concentration at which each compound inhibited cholesterol esterification by 50%), 10% FCS, 4 h then 2 h [14C] oleate pulse): 35 nM |
